Experimental data from patent US11286268B1, “EIF4E-inhibiting compounds and methods” (EFFECTOR THERAPEUTICS, INC., priority 2019, dated 2022).
Read-outs that look alike come from different tables or passages of the source.

Molecular target: recombinant eIF4E (Homo sapiens (Human), UniProt P06730)
Assay: Fluorescence polarization competition assay for eIF4E binding potency
How it was run: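 IC50 values reflect 50% displacement of 20 nM EDA-m7GDP-ATTO-550 from 75 nM eIF4E, measured by fluorescence polarization after 30 min at room temperature. Buffer: 20 mM Tris pH 7.5, 100 mM NaCl, 1 mM DTT, 0.02% Tween-20; 1% DMSO.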

[1] = fluorescence polarization competition, 75 nM recombinant eIF4E, 20 nM EDA-m7GDP-ATTO-550, IC50 class, read-out: elF4E FP
[2] = inhibition of eIF4E/EDA-m7GDP-ATTO-550 binding by 50%, Table 4B calculated values, read-out: IC50

recombinant eIF4E, sequence (P06730 whole entry): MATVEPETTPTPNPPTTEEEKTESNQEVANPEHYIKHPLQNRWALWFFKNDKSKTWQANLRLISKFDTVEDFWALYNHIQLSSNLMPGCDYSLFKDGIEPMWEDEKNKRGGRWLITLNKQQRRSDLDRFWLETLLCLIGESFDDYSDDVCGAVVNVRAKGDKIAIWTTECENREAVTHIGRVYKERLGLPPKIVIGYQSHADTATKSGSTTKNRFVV

Row | SMILES | IC50 [1] [nM] | IC50 [2] [nM]
1 | Cc1cnc(-c2nc3c(=O)n(CCOc4ccc(Cl)cc4-c4cc(C)nc5c(C(=O)O)csc45)c(C)nc3cc2C(F)(F)F)c(Cl)n1 [compound 1024] | < 50 | 24.2
2 | Cc1cc(-c2cc(Cl)ccc2OCCn2c(C)nc3cc(C(F)(F)F)c(-c4cnc(C(F)F)cn4)c(C#N)c3c2=O)c2scc(C(=O)O)c2n1 [compound 1025] | < 50 | 30
3 | Cc1cc(-c2cc(Cl)ccc2OCCn2c(C)nc3cc(C(F)(F)F)c(-c4cncc(C(F)(F)F)n4)c(C#N)c3c2=O)c2scc(C(=O)O)c2n1 [compound 1026] | < 50 | 15.5
4 | Cc1cc(-c2cc(Cl)ccc2OCCn2c(C)nc3cc(C(F)(F)F)c(-c4nn(C)cc4C)c(C#N)c3c2=O)c2scc(C(=O)O)c2n1 [compound 1027] | < 50 | 31.5
5 | Cc1cc(-c2cc(Cl)ccc2OCCn2c(C)nc3cc(C(F)(F)F)c(-c4cc(C)nn4C)c(C#N)c3c2=O)c2scc(C(=O)O)c2n1 [compound 1028] | < 50 | 6.14
6 | Cc1cc(-c2cc(Cl)ccc2OCCn2c(C)nc3cc(C(F)(F)F)c(-c4cc(C)n(C)n4)c(C#N)c3c2=O)c2scc(C(=O)O)c2n1 [compound 1029] | < 50 | 7.66
7 | Cc1cc(-c2cc(Cl)ccc2OCCn2c(C)nc3cc(C(F)(F)F)c(-c4cn(C)nc4C)c(C#N)c3c2=O)c2scc(C(=O)O)c2n1 [compound 1031] | < 50 | 11.6
8 | Cc1cc(-c2cc(Cl)ccc2OCCn2c(C)nc3cc(C(F)(F)F)c(-c4cnn(C)c4C)c(C#N)c3c2=O)c2scc(C(=O)O)c2n1 [compound 1032] | < 50 | 6.2
9 | Cc1cc(-c2cc(Cl)ccc2OCCn2c(C)nc3cc(C(F)(F)F)c(OC4CC4)c(C#N)c3c2=O)c2scc(C(=O)O)c2n1 [compound 1034] | < 50 | 37.9
10 | COc1c(C(F)(F)F)cc2nc(C)n(CCOc3ccc(Cl)cc3-c3cc(C)nc4c(C(=O)O)csc34)c(=O)c2c1C#N [compound 1036] | < 50 | 3.51
11 | Cc1cc(-c2cc(Cl)ccc2OCCn2c(C)nc3cnc(N4CC(OCC(F)(F)F)C4)c(C#N)c3c2=O)c2scc(C(=O)O)c2n1 [compound 1044] | < 50 | 5.31

Second part, the molecule after the results:

Row | IC50 [1] [nM] | IC50 [2] [nM] | SMILES
12 | < 50 | 20 | Cc1cc(-c2cc(Cl)ccc2OCCn2c(C)nc3cc(C(F)(F)F)c(OCc4ccccn4)c(C#N)c3c2=O)c2scc(C(=O)O)c2n1 [compound 1033]
13 | < 50 | – | Cc1cc(-c2cc(Cl)ccc2OCCn2c(C)nc3cc(C(F)(F)F)c(Oc4cccnc4)c(C#N)c3c2=O)c2scc(C(=O)O)c2n1 [compound 1035]
14 | < 50 | 38.9 | Cc1cc(-c2cc(Cl)ccc2OCCn2c(C)nc3cnc(Oc4ccccc4)c(C#N)c3c2=O)c2scc(C(=O)O)c2n1 [compound 1038]
15 | < 50 | 21.7 | Cc1cc(-c2cc(Cl)ccc2OCCn2c(C)nc3cnc(OCc4ccccn4)c(C#N)c3c2=O)c2scc(C(=O)O)c2n1 [compound 1039]
16 | < 50 | 30 | Cc1cc(-c2cc(Cl)ccc2OCCn2c(C)nc3cc(N(C)C)c(-c4ccccc4)c(C#N)c3c2=O)c2scc(C(=O)O)c2n1 [compound 1040]
17 | < 50 | 6.21 | Cc1cc(-c2cc(Cl)ccc2OCCn2c(C)nc3cnc(N4CC(OC(F)F)C4)c(C#N)c3c2=O)c2scc(C(=O)O)c2n1 [compound 1041]
18 | < 50 | 26.5 | Cc1cc(-c2cc(Cl)ccc2OCCn2c(C)nc3cnc(N4CC(OC(F)(F)F)C4)c(C#N)c3c2=O)c2scc(C(=O)O)c2n1 [compound 1042]
19 | < 50 | 3.98 | Cc1cc(-c2cc(Cl)ccc2OCCn2c(C)nc3cnc(N4CC(OCC(F)F)C4)c(C#N)c3c2=O)c2scc(C(=O)O)c2n1 [compound 1043]
20 | < 50 | 38.2 | Cc1cc(-c2cc(Cl)ccc2OCCn2c(C)nc3cnc(N4CC(OC(C)(C)C)C4)c(C#N)c3c2=O)c2scc(C(=O)O)c2n1 [compound 1045]
